According to patent publication US7087757B2, “Phenyl-substituted imidazopyridines” (Ortho-McNeil Pharmaceutical, Inc., priority 2000, dated 2006):

Molecular target: T1, human histamine H3 receptor (Homo sapiens, UniProt Q9Y5N1)
T1 construct: One microgram supercoiled H3 receptor cDNA was added to the cells and mixed; expressed in transfected cells; membranes prepared from cell pellets
Assay: [3H]-N-methylhistamine binding
Conditions: membranes of histamine H3 receptor-expressing SK-N-MC cells; 0.8 nM [3H]-N-methylhistamine; 45 minutes at 25° C.; Ki calculated with KD of 800 pM
Protocol: Screening using the human receptor is particularly important for the identification of new therapies for the treatment of human disease.
A 10 cm tissue culture dish with a confluent monolayer of SK-N-MC cells was split two days prior to transfection. Using sterile technique the media was removed and the cells were detached from the dish by the addition of trypsin. One fifth of the cells were then placed onto a new 10 cm dish. Cells were grown in a 37° C. incubator with 5% CO2 in Minimal Essential Media Eagle with 10% Fetal Bovine Serum. After two days cells were approximately 80% confluent. These were removed from the dish with trypsin and pelleted in a clinical centrifuge. […] One microgram supercoiled H3 receptor cDNA was added to the cells and mixed. The voltage for the electroporation was set at 0.25 kV, the capacitance is set at 960 μF.
After electroporation the cells were diluted into 10 mL complete media and plated onto four 10 cm dishes. Due to the variability in the efficiency of electroporation, four different concentrations of cells were plated. The ratios used were: 1:20, 1:10, and 1:5, with the remainder of the cells being added to the fourth dish. The cells were allowed to recover for 24 hours before adding the selection media (complete media with 600 μg/ml G418). After 10 days dishes were analyzed for surviving colonies of cells. Dishes with well-isolated colonies were used. Cells from individual colonies were isolated and tested. SK-N-MC cells were used because they give efficient coupling for inhibition of adenylate cyclase. The clones that gave the most robust inhibition of adenylate cyclase in response to histamine were used for further study.
Cell pellets from histamine H3 receptor-expressing SK-N-MC cells were homogenized in 20 mM Tris HCl/0.5 mM EDTA. Supernatants from a 800 g spin were collected, reccentrifuged at 30,000 g for 30 minutes. Pellets were rehomogenized in 50 mM Tris/5 mM EDTA (pH 7.4). Membranes were incubated with 0.8 nM [^3H]-N-methylhistamine plus/minus test compounds for 45 minutes at 25° C. and harvested by rapid filtration over GF/C glass fiber filters (pretreated with 0.3% polyethylenimine) followed by four washes with ice cold buffer. Filters were dried, added to 4 mL scintillation cocktail and then counted on a liquid scintillation counter.

T1 sequence (Q9Y5N1 whole entry): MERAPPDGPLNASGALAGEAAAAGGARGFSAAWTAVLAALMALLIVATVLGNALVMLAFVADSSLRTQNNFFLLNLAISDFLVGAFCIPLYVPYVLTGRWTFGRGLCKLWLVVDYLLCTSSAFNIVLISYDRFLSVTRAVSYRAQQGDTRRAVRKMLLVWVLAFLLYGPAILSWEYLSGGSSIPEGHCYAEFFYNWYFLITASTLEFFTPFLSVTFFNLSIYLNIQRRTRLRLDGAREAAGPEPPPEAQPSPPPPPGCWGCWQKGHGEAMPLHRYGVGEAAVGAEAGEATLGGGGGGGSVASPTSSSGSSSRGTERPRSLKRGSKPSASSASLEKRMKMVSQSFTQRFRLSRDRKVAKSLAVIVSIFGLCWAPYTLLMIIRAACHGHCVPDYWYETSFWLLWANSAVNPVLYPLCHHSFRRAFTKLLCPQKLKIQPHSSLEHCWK

Row | Ki [nM] | SMILES
1 | 150 | Cc1cccn2cc(-c3ccc(OCCCNC4CCN(Cc5ccccc5)CC4)cc3)nc12 [Example 44, 2-[4-[N-[(1-Benzylpiperidino)amino]propoxy]phenyl]-8-methylimidazo[1,2-a]pyridine]
2 | 500 | Cc1cccn2cc(-c3ccc(OCCCN4CCN(CCc5ccccc5)CC4)cc3)nc12 [Example 45, 2-[4-[3-(4-Phenethylpiperazino)propoxy]phenyl]-8-methylimidazo[1,2-a]pyridine]
3 | 1000 | CCCNCC(O)COc1ccc(-c2cn3cccc(C)c3n2)cc1 (stereo not drawn) [Example 46, 2-[4-(2-hydroxy-3-propylaminopropoxy)phenyl]-8-methylimidazo[1,2-a]pyridine]
4 | 1000 | Cc1cccn2cc(-c3ccc(OCC(O)CNC(C)(C)C)cc3)nc12 (stereo not drawn) [Example 49, 2-(4-(2-hydroxy-3-(1,1-Dimethylethyl)aminopropoxy)phenyl)-8-methylimidazo[1,2-a]pyridine]
5 | 1000 | Cc1cccn2cc(-c3ccc(OCC(O)CN4CCN(CCc5ccccc5)CC4)cc3)nc12 (stereo not drawn) [Example 50, 2-[4-[2-Hydroxy-3-(4-phenethylpiperazino)propoxy]phenyl]-8-methylimidazo[1,2-a]pyridi]
6 | 5000 | Cc1cccn2cc(-c3ccc(OCC(O)CN4CCN(Cc5ccccc5)CC4)cc3)nc12 (stereo not drawn) [Example 51, 2-[4-[2-Hydroxy-3-(4-benzylpiperazino)propoxy]phenyl]-8-methylimidazo[1,2-a]pyridine]
7 | 5 | c1ccn2cc(-c3ccc(OCCCN4CCCCC4)cc3)nc2c1 [Example 52, 2-[4-(3-Piperidin-1-yl-propoxy)-phenyl]-imidazo[1,2-a]pyridine]
8 | 630 | Cc1cccn2cc(-c3ccc(NS(=O)(=O)CCCN4CCCCC4)cc3)nc12 [Example 53, 3-Piperidin-1-yl-propane-1-sulfonic acid [4-(8-methyl-imidazo[1,2-a]pyridin-2-yl)-phenyl]]
9 | 1 | Cc1cccn2cc(-c3ccc(OCCCN4CCCCC4)cc3)nc12 [Example 54, 2-(4-Piperidinopropoxyphenyl)-8-methylimidazo[1,2-a]pyridine]
10 | 25 | Cc1cccn2cc(-c3ccc(OCCCN4CCOCC4)cc3)nc12 [Example 55, 2-(4-Morpholinopropoxyphenyl)-8-methylimidazo[1,2-a]pyridine]

Row | SMILES | Ki [nM]
11 | CCCN(CCC)CC(O)COc1ccc(-c2cn3cccc(C)c3n2)cc1 (stereo not drawn) [Example 47, 2-(4-Dipropylamino(2-hydroxy)propoxyphenyl)-8-methylimidazo[1,2-a]pyridine] | 500
12 | CCCCN(CCCC)CC(O)COc1ccc(-c2cn3cccc(C)c3n2)cc1 (stereo not drawn) [Example 48, 2-(4-Dibutylamino(2-hydroxy)propoxyphenyl)-8-methylimidazo[1,2-a]pyridine] | 1000
